Data: patent publication US6720346B2, “Thiazole benzamide derivatives and pharmaceutical compositions for inhibiting cell proliferation” (Agouron Pharmaceuticals, Inc., priority 2001, dated 2004)
Counter-ions that a name gives are not always drawn.

Columns and labels:
CDK2/cyclin A = molecular target: T1, CDK2/cyclin A (Homo sapiens, UniProt P24941); assay: Inhibition of CDK2/cyclin A retinoblastoma kinase activity (Ki; % inhibition); assay type: biochemical; conditions: for Ki: apparent Ki, CDK2/cyclin A, Rb substrate
T1 construct: made in house; host or cells: CDK2: insect cells (baculovirus); cyclin A: E. coli
Summary of the method: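 Radiometric filter assay of CDK2/proteolyzed cyclin A (baculovirus-expressed human CDK2, 10 or 19 nM) phosphorylating an Rb fragment with 25 μM [³²P/³³P]ATP in pH 7.4 HEPES, 2% DMSO, at 30 °C for 60 or 75 min under initial-rate conditions. Library compounds screened at 30 nM for % inhibition; apparent Ki from concentration series fit to competitive or tight-binding inhibition equations.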

HCT-116 cell line = assay: Inhibition of cell growth, MTT tetrazolium salt assay; assay type: cell-based; conditions: for IC50: Homo sapiens, HCT-116, 120 h, MTT, three to five days
Summary of the method: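 Growth inhibition was read as MTT-formazan absorbance at 540 nm, after 4 h with 0.2 mg/mL MTT. Before that, HCT-116 cells had been exposed 3–5 days at 37 °C to compounds in 0.5% (v/v) DMSO, added 4 h after plating. 50% and 90% inhibitory concentrations were taken from semi-log concentration–inhibition plots versus vehicle controls.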

human CDK4/cyclin D3 = molecular target: T2, human CDK4/cyclin D3 (Homo sapiens, UniProt P11802); assay: Inhibition of CDK4/cyclin D retinoblastoma kinase activity (Ki; % inhibition); assay type: biochemical; conditions: for Ki: apparent Ki, CDK4/cyclin D3, Rb substrate
T2 construct: made in house; host or cells: insect cells co-infected with baculovirus vectors
T2 sequence (P11802 whole entry): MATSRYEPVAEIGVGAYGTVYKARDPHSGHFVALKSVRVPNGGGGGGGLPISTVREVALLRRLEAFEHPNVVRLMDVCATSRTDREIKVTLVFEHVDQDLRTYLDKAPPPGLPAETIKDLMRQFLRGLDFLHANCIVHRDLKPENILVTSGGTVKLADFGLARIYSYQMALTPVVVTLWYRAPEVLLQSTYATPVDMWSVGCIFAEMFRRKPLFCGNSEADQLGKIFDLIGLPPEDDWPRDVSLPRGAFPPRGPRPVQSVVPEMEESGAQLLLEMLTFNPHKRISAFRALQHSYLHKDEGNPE
T2 sequence (P30281 1-264 partner limits assumed): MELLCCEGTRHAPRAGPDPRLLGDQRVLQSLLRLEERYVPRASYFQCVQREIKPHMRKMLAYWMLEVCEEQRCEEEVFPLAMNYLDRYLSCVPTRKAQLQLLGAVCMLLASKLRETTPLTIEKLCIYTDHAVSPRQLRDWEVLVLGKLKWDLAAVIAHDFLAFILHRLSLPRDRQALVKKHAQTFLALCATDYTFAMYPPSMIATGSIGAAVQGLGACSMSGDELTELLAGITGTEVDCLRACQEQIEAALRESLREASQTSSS
Summary of the method: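 Insect-cell-expressed CDK4 with truncated cyclin D3 (1-264), 5 nM, phosphorylating His-tagged Rb fragment (386-928) with 25 μM [32/33P]ATP at pH 7.4, 30 °C, 20 min (60 min for tight binders). Filter capture, phosphorimager read; % inhibition at 30 nM compound, Ki from competitive or tight-binding fits.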

[1] = HCT-116 cells, 0.25 μM compound

CDK2 % Inhibition at 0.03 μM (CDK2/cyclin A; at 0.03 μM) [%] | CDK4 % Inhibition at 0.03 μM (human CDK4/cyclin D3; at 0.03 μM) [%] | CDK2 % Inhibition at 0.03 μM (CDK2/cyclin A; 0.03 μM compound) [%] | CDK4 % Inhibition at 0.03 μM (human CDK4/cyclin D3; 0.03 μM compound) [%] | SMILES | HCT-116 % Inhibition at 0.25 μM (HCT-116 cell line; HCT-116, at 0.25 μM) [%] | HCT-116 % Inhibition at 0.1 μM (HCT-116 cell line; HCT-116 cells, 0.1 μM compound) [%] | HCT-116 % Inhibition at 0.25 μM (HCT-116 cell line; [1]) [%] | further results
4 | 7 | – | – | Nc1nc(Nc2ccc(C(=O)N3CCC(CCO)CC3)cc2)sc1C(=O)c1c(F)cccc1F [Example G63] | 54 | – | – | –
0 | 11 | – | – | CC(C)CCCC(C)NC(=O)c1ccc(Nc2nc(N)c(C(=O)c3c(F)cccc3F)s2)cc1 (stereo not shown) [Example G141] | 50 | – | – | HCT-116 % Inhibition at 0.1 μM (HCT-116 cell line; HCT-116, at 0.1 μM): 0%
3 | 7 | – | – | CN(C(=O)c1ccc(Nc2nc(N)c(C(=O)c3c(F)cccc3F)s2)cc1)C1CCCC1 [Example G80] | 36 | – | – | –
– | – | −23 | −14 | CC(C)(C)C1CCC(NC(=O)c2ccc(Nc3nc(N)c(C(=O)c4c(F)cccc4F)s3)cc2)CC1 (stereo not shown) [Example G267] | – | 24 | 44 | –
16 | 7 | – | – | CC(C)[C@@H](CO)NC(=O)c1ccc(Nc2nc(N)c(C(=O)c3c(F)cccc3F)s2)cc1 [Example G152] | 53 | – | – | HCT-116 % Inhibition at 0.1 μM (HCT-116 cell line; HCT-116, at 0.1 μM): 5%
– | – | – | – | CN1CC[C@H](NC(=O)c2ccc(Nc3nc(N)c(C(=O)c4c(F)cccc4F)s3)cc2)C1 [Example A32, 4-[4-Amino-5-(2,6-difluoro-benzoyl)-thiazol-2-ylamino]-N-(1-methyl-pyrrolidin-3S-yl)-benzamide] | – | – | – | Ki (CDK2/cyclin A): 77 nM; IC50 (HCT-116 cell line): 280 nM; Ki (human CDK4/cyclin D3): 6 nM
– | – | 28 | 20 | COc1ccc(CNC(=O)c2ccc(Nc3nc(N)c(C(=O)c4c(F)cccc4F)s3)cc2)c(OC)c1 [Example G254] | – | 35 | 75 | –
– | – | 15 | 30 | CCOC(=O)N1CCC(NC(=O)c2ccc(Nc3nc(N)c(C(=O)c4c(F)cccc4F)s3)cc2)CC1 [Example G231] | – | 6 | 55 | –
−7 | 1 | – | – | CCOc1cccc(NC(=O)c2ccc(Nc3nc(N)c(C(=O)c4c(F)cccc4F)s3)cc2)c1 [Example G16] | 50 | – | – | –
14 | 23 | – | – | Nc1nc(Nc2ccc(C(=O)NC3CCS(=O)(=O)C3)cc2)sc1C(=O)c1c(F)cccc1F (stereo not shown) [Example G120] | 54 | – | – | HCT-116 % Inhibition at 0.1 μM (HCT-116 cell line; HCT-116, at 0.1 μM): 0%
1 | 22 | – | – | CCCOCCNC(=O)c1ccc(Nc2nc(N)c(C(=O)c3c(F)cccc3F)s2)cc1 [Example G165] | 61 | – | – | HCT-116 % Inhibition at 0.1 μM (HCT-116 cell line; HCT-116, at 0.1 μM): 0%
16 | 7 | – | – | Nc1nc(Nc2ccc(C(=O)Nc3cccc4cnccc34)cc2)sc1C(=O)c1c(F)cccc1F [Example G83] | 64 | – | – | –
– | – | – | – | CC1(C)CCCC(C)(C)N1CCNC(=O)c1ccc(Nc2nc(N)c(C(=O)c3c(F)cccc3F)s2)cc1 [Example A53, 4-[4-Amino-5-(2,6-difluoro-benzoyl)-thiazol-2-ylamino]-N-[2-(2,2,6,6-tetramethyl-piperidin-1-yl)-ethyl]-benzamide] | – | – | – | Ki (CDK2/cyclin A): 120 nM; IC50 (HCT-116 cell line): 150 nM; Ki (human CDK4/cyclin D3): 4 nM
4 | 32 | – | – | CN(C)C1CCN(C(=O)c2ccc(Nc3nc(N)c(C(=O)c4c(F)cccc4F)s3)cc2)C1 (stereo not shown) [Example G29] | – | – | – | HCT-116 % Inhibition at 0.25 μM (HCT-116 cell line; HCT-116, at 0.25 μM, 0.25 µM): 55%
– | – | 13 | 25 | Nc1nc(Nc2ccc(C(=O)NCc3ccc(F)cc3F)cc2)sc1C(=O)c1c(F)cccc1F [Example G301] | – | 18 | 79 | –
– | – | – | – | Nc1nc(Nc2ccc(C(=O)NCCc3cccs3)cc2)sc1C(=O)c1c(F)cccc1F [Example A26, 4-[4-Amino-5-(2,6-difluoro-benzoyl)-thiazol-2-ylamino]-N-(2-thiophen-2-yl-ethyl)-benzamide] | – | – | – | Ki (CDK2/cyclin A): 79 nM; IC50 (HCT-116 cell line): 170 nM; Ki (human CDK4/cyclin D3): 20 nM
2 | 12 | – | – | CC(C)CN(C)C(=O)c1ccc(Nc2nc(N)c(C(=O)c3c(F)cccc3F)s2)cc1 [Example G72] | 54 | – | – | –
2 | −3 | – | – | COc1ccc(C(F)(F)F)cc1NC(=O)c1ccc(Nc2nc(N)c(C(=O)c3c(F)cccc3F)s2)cc1 [Example G22] | 50 | – | – | –

CDK2 % Inhibition at 0.03 μM (CDK2/cyclin A; at 0.03 μM) [%] | CDK4 % Inhibition at 0.03 μM (human CDK4/cyclin D3; at 0.03 μM) [%] | CDK2 % Inhibition at 0.03 μM (CDK2/cyclin A; 0.03 μM compound) [%] | CDK4 % Inhibition at 0.03 μM (human CDK4/cyclin D3; 0.03 μM compound) [%] | SMILES | HCT-116 % Inhibition at 0.25 μM (HCT-116 cell line; HCT-116, at 0.25 μM) [%] | HCT-116 % Inhibition at 0.1 μM (HCT-116 cell line; HCT-116 cells, 0.1 μM compound) [%] | HCT-116 % Inhibition at 0.25 μM (HCT-116 cell line; [1]) [%] | further results
−10 | 4 | – | – | CC1CN(C(=O)c2ccc(Nc3nc(N)c(C(=O)c4c(F)cccc4F)s3)cc2)CC(C)O1 (stereo not shown) [Example G18] | 41 | – | – | –
29 | 39 | – | – | Nc1nc(Nc2ccc(C(=O)NCc3cccnc3)cc2)sc1C(=O)c1c(F)cccc1F [Example G188] | 51 | – | – | HCT-116 % Inhibition at 0.1 μM (HCT-116 cell line; HCT-116, at 0.1 μM): 17%
– | – | −3 | 12 | CN(Cc1ccco1)C(=O)c1ccc(Nc2nc(N)c(C(=O)c3c(F)cccc3F)s2)cc1 [Example G307] | – | 8 | 54 | –
– | – | −11 | 2 | Nc1nc(Nc2ccc(C(=O)NCCc3ccncc3)cc2)sc1C(=O)c1c(F)cccc1F [Example G268] | – | 26 | 63 | –
5 | 12 | – | – | NC(=O)C1CCN(C(=O)c2ccc(Nc3nc(N)c(C(=O)c4c(F)cccc4F)s3)cc2)CC1 [Example G43] | 62 | – | – | –
– | – | – | – | CN(CC1CC1)C(C)(C)CNC(=O)c1ccc(Nc2nc(N)c(C(=O)c3c(F)cccc3F)s2)cc1 [Example A39] | – | – | – | Ki (CDK2/cyclin A): 160 nM; IC50 (HCT-116 cell line): 170 nM; Ki (human CDK4/cyclin D3): 11 nM
11 | 21 | – | – | CC(CNC(=O)c1ccc(Nc2nc(N)c(C(=O)c3c(F)cccc3F)s2)cc1)c1ccccc1 (stereo not shown) [Example G118] | 48 | – | – | HCT-116 % Inhibition at 0.1 μM (HCT-116 cell line; HCT-116, at 0.1 μM): 5%
– | – | −25 | 0 | CSc1ccc(NC(=O)c2ccc(Nc3nc(N)c(C(=O)c4c(F)cccc4F)s3)cc2)cc1 [Example G255] | – | 25 | 63 | –
– | – | – | – | C[C@H](NC(=O)c1ccc(Nc2nc(N)c(C(=O)c3c(F)cccc3F)s2)cc1)[C@@H]1CCCN1C [Example A69] | – | – | – | Ki (CDK2/cyclin A): 14.6 nM; IC50 (HCT-116 cell line): 2100 nM; Ki (human CDK4/cyclin D3): 234 nM
– | – | – | – | Nc1nc(Nc2ccc(C(=O)NCc3nccs3)cc2)sc1C(=O)c1c(F)cccc1F [Example A49, 4-[4-Amino-5-(2,6-difluoro-benzoyl)-thiazol-2-ylamino]-N-(thiazol-2-yl-methyl)-benzamide Hydrochloride] | – | – | – | Ki (CDK2/cyclin A): 260 nM; IC50 (HCT-116 cell line): 320 nM; Ki (human CDK4/cyclin D3): 11 nM
– | – | −12 | 4 | CC(C)c1cccc(NC(=O)c2ccc(Nc3nc(N)c(C(=O)c4c(F)cccc4F)s3)cc2)c1 [Example G389] | – | 11 | 61 | –
– | – | −17 | 0 | CCCCN(Cc1ccccc1)C(=O)c1ccc(Nc2nc(N)c(C(=O)c3c(F)cccc3F)s2)cc1 [Example G306] | – | 9 | 44 | –
– | – | 39 | 39 | Cc1ccc(CNC(=O)c2ccc(Nc3nc(N)c(C(=O)c4c(F)cccc4F)s3)cc2)o1 [Example G250] | – | 31 | 72 | –
9 | 10 | – | – | COC(=O)CN(C)C(=O)c1ccc(Nc2nc(N)c(C(=O)c3c(F)cccc3F)s2)cc1 [Example G50] | 61 | – | – | –
20 | 54 | – | – | Nc1nc(Nc2ccc(C(=O)NC3CCN(Cc4ccccc4)CC3)cc2)sc1C(=O)c1c(F)cccc1F [Example G178] | 83 | – | – | HCT-116 % Inhibition at 0.1 μM (HCT-116 cell line; HCT-116, at 0.1 μM): 43%
– | – | 14 | 9 | Cc1ccc(NC(=O)c2ccc(Nc3nc(N)c(C(=O)c4c(F)cccc4F)s3)cc2)cc1 [Example G197] | – | 26 | 61 | –
– | – | 13 | 23 | Nc1nc(Nc2ccc(C(=O)NCCCc3ccccc3)cc2)sc1C(=O)c1c(F)cccc1F [Example G325] | – | 6 | 51 | –
